≈ marks a conversion by molar mass, not a printed value. Like-named read-outs stand apart in the source and are kept apart here.
Assays:
[1] = test system: gut microbiome; assay: Germ-free humanized mouse study, 16S rRNA gut microbiome analysis; format: in vivo; settings: humanized germ-free mice
Excerpt: Germ-free (GF) mice (six per group) were randomly assigned to IBZ, VAN, FDX, MTZ, or control groups.
An oral gavage of healthy human-derived fecal slurry was given to GF mice. The humanized mice were housed in a sterile biological safety cabinet (BSC) for one week to allow the donor gut microbiome to establish. Humanized mice were then moved to sterile, micro-isolator cages and pellet chow diet was exchanged for a powder chow diet. The humanized mice were then allowed one week to acclimate to the powder chow diet. In addition, a stool sample was obtained prior to the change in diet (baseline 1). At day 14, once the mice acclimated to the powder chow diet, a second baseline stool sample was obtained (baseline 2) and antibiotic treatment was started. The appropriate antibiotics were added to the powder chow diet for 10 days. At day 16, two days after beginning antibiotic treatment, another stool sample was collected (ABX-1). During the 10-day antibiotic treatment, powder chow dishes were refilled each day with fresh chow containing the randomly assigned antibiotic. Stool samples were again collected at day 24 (ABX-2).
To assess antibiotic microbiome effect, 16S rRNA metagenomics was used on stool samples that were collected at day 0 (baseline 1 and baseline 2) and after 2 and […] of treatment with antibiotics. Bulk DNA was extracted from stool samples using the DNeasy® PowerSoil® Kit. The V4 region of the bacterial 16S rRNA gene was sequenced using the Illumina MiSeq and CLC Genomics Workbench. Raw sequencing reads were processed and curated using the mothur (v.1.48.0) software package and the mothur MiSeq SOP was followed as outlined in Schloss, P. D., et al., Introducing mothur: open-source, platform-independent, community supported software for describing and comparing microbial communities. Appl Environ Microbiol, 2009. 75(23): p. 7537-41 (see also, Kozich, J. J., et al., Development of a dual-index sequencing strategy and curation pipeline for analyzing amplicon sequence data on the MiSeq Illumina sequencing platform. Appl Environ Microbiol, 2013. 79(17): p. 5112-20.). All data visualization and statistical analysis were performed using R studio (R Core Team (2023). R: A Language and Environment for Statistical Computing, Vienna, Austria.).

[2] = test system: C. difficile biofilms (strains R20291, CD 630); assay: C. difficile in vitro biofilm studies (MIC, MBIC, CFU/mL, Crystal Violet biomass); format: cell-based; settings: for MBIC: Minimum Biofilm Inhibitory Concentration; for MIC: Clostridioides difficile
Experimental: A basic flow chart outlining the experimental procedure used in these studies may be seen in FIG. 14. Briefly, C. difficile laboratory strain R20291 was grown in Brain heart infusion-supplemented (BHIS) medium. […] Biofilm formation was established via anaerobic incubation of the cultures at 37° C. for 24 hrs. Early biofilm formation was established at 4 hrs, whereas late biofilm formation was established at 24 hrs, 48 hrs, and 72 hrs. Following biofilm formation, the BHIS medium was removed and replaced with fresh media comprising no antibiotic (control), ibezapolstat (IBZ), Fidaxomicin (FDX), or metronidazole (MTZ). The cultures were then anaerobically incubated for 24 hrs or subjected to time course tests. Biofilm biomass was measured using Crystal Violet staining. […] Data was measured and recorded using Cytation 3 calibrated to read at A570. Data was analyzed by comparing percent growth of antibiotic treated cultures with controls.

[3] = test system: C. difficile clinical isolates; settings: for MIC: Clostridioides difficile, 24 h, agar dilution; for MIC range: across the twelve clinical isolates tested
[4] = test system: gut microbiome; assay: Phase 1 healthy volunteer study, gut microbiome (metagenomics, qPCR); format: in vivo, human; settings: phase 1 healthy volunteer study; treatment over 10 days; shotgun metagenomic sequencing
[5] = test system: bacterial infections in the gut; settings: treatment of bacterial infections in the gut; cited from earlier work
[6] = antibiotic in powder chow 10 days
[7] = antibiotic in powder chow 10 days, compared to Baseline 2 (D14)
[8] = C. diff. strain R20291, read-out: MIC
[9] = C. difficile clinical isolate MT 4802
[10] = C. difficile clinical isolate MT 5071
[11] = C. difficile clinical isolate MT 5342
[12] = C. difficile clinical isolate MT 5364
[13] = C. difficile clinical isolate MT 5382
[14] = C. difficile clinical isolate MT 5426
[15] = C. difficile clinical isolate MT 5493
[16] = C. difficile clinical isolate MT 5515
[17] = C. difficile clinical isolate MT 5529
[18] = C. difficile clinical isolate MT 5536
[19] = C. difficile clinical isolate SH 1132

SMILES	relative abundance of Proteobacteria (in words) ([1]; phylum level)	relative abundance of Verrucomicrobiota (in words) ([1]; phylum level)	Average Change in Metric ± SD, Bray-Curtis Dissim. to Baseline 1 [1, 6]	Average Change in Metric ± SD, Bray-Curtis Dissim. to Baseline 2 [1, 6]	Avg. Change in Relative Abundance ± SD, Proteobacteria [1, 7]	MBIC ([2]; C. diff. strain R20291)	MIC [2, 8]	MIC [3, 9]	MIC [3, 10]	MIC [3, 11]	MIC [3, 12]	MIC [3, 13]	MIC [3, 14]	MIC [3, 15]	MIC [3, 16]	MIC [3, 17]	MIC [3, 18]	MIC [3, 19]	MIC range [3]	also measured
Cc1ncc([N+](=O)[O-])n1CCO [Metronidazole, metronidazole]	proportional increases	increased	0.92 ± 0.02	0.92 ± 0.04	15.1% ± 3.8%	0.5 µg/mL	0.5 µg/mL (≈ 2.92 µM)	0.25 µg/mL (≈ 1.46 µM)	1 µg/mL (≈ 5.84 µM)	2 µg/mL (≈ 11.7 µM)	2 µg/mL (≈ 11.7 µM)	2 µg/mL (≈ 11.7 µM)	4 µg/mL (≈ 23.4 µM)	2 µg/mL (≈ 11.7 µM)	4 µg/mL (≈ 23.4 µM)	2 µg/mL (≈ 11.7 µM)	0.25 µg/mL (≈ 1.46 µM)	1 µg/mL (≈ 5.84 µM)	0.25 to 8 µg/mL	relative abundance of Proteobacteria (in words) ([1]; phylum level, listed as MTZ): increased; Avg. Change in Relative Abundance ± SD, Firmicutes [1, 7]: 36.5% ± 5.1%; Eagle effect in 24-hour biofilms ([2]; R20291 or CD 630, at higher concentrations): Eagle effect was observed
CCc1c(Cl)c(O)c(Cl)c(O)c1C(=O)O[C@H]1[C@H](O)[C@H](OC)[C@H](OC/C2=C\C=C\C[C@H](O)/C(C)=C/[C@H](CC)[C@@H](O[C@@H]3OC(C)(C)[C@@H](OC(=O)C(C)C)[C@H](O)[C@@H]3O)/C(C)=C/C(C)=C/C[C@@H]([C@@H](C)O)OC2=O)O[C@@H]1C [Fidaxomicin, fidaxomicin]	–	–	0.62 ± 0.02	0.39 ± 0.03	10.2% ± 3%	0.125 µg/mL	0.06 µg/mL (≈ 0.0567 µM)	0.006 µg/mL (≈ 0.00567 µM)	1 µg/mL (≈ 0.945 µM)	1 µg/mL (≈ 0.945 µM)	1 µg/mL (≈ 0.945 µM)	1 µg/mL (≈ 0.945 µM)	0.5 µg/mL (≈ 0.473 µM)	1 µg/mL (≈ 0.945 µM)	2 µg/mL (≈ 1.89 µM)	0.5 µg/mL (≈ 0.473 µM)	1 µg/mL (≈ 0.945 µM)	0.5 µg/mL (≈ 0.473 µM)	<0.03125 to 2 µg/mL	change of Firmicutes (in words) ([1]; phylum level): increased; proportional change of Bacteroidetes (in words) ([1]; phylum level): proportional increases; Avg. Change in Relative Abundance ± SD, Bacteroidetes [1, 7]: 9.9% ± 2.9%; Avg. Change in Relative Abundance ± SD, Verrucomicrobia (Akkermansia) [1, 7]: 3.6% ± 2.8%
CN[C@H](CC(C)C)C(=O)N[C@H]1C(=O)N[C@@H](CC(N)=O)C(=O)N[C@H]2C(=O)N[C@H]3C(=O)N[C@H](C(=O)N[C@H](C(=O)O)c4cc(O)cc(O)c4-c4cc3ccc4O)[C@H](O)c3ccc(c(Cl)c3)Oc3cc2cc(c3O[C@@H]2O[C@H](CO)[C@@H](O)[C@H](O)[C@H]2O[C@H]2C[C@](C)(N)[C@H](O)[C@H](C)O2)Oc2ccc(cc2Cl)[C@H]1O [Vancomycin, vancomycin]	proportional increases	increased	0.84 ± 0.02	0.75 ± 0.03	37.2% ± 2.8%	1 µg/mL	–	1 µg/mL (≈ 0.69 µM)	4 µg/mL (≈ 2.76 µM)	8 µg/mL (≈ 5.52 µM)	4 µg/mL (≈ 2.76 µM)	1 µg/mL (≈ 0.69 µM)	4 µg/mL (≈ 2.76 µM)	1 µg/mL (≈ 0.69 µM)	4 µg/mL (≈ 2.76 µM)	1 µg/mL (≈ 0.69 µM)	2 µg/mL (≈ 1.38 µM)	4 µg/mL (≈ 2.76 µM)	1 to 16 µg/mL	microbiome profile of treated subjects [4]: larger proportion of Proteobacteria; relative abundance of Proteobacteria (in words) ([1]; phylum level, listed as VAN): increased; C. diff growth (CFU/mL) and biomass at sub-MIC compared to control ([2]; 0.4× MIC): reduced; growth in early biofilms at supra-MIC ([2]; 40× MIC, after 48 hours of treatment): reduced growth; MIC [2]: 1 µg/mL (≈ 0.69 µM); patients having a recurring infection after treatment is discontinued [5]: 20-25%; MIC ([3]; C. difficile clinical isolate MT 4883): 8 µg/mL (≈ 5.52 µM)
